The target in one assay is GST-Pen2 (Homo sapiens, UniProt Q9NZ42). The assay can be described thus: Surface plasmon resonance (SPR) assay, Biacore 2000. The conditions noted are these: equilibrium responses fit to 1:1 binding isotherm; estimated. As for the experimental part: A surface plasmon resonance (SPR) assay was performed using the Biacore™ 2000 system and control software (Biacore Life Sciences), essentially as described in Warnmark et al. (2001) J. Biol. Chem. 276:23397-23404. Compound 2 or L-685,458 (Sigma #L1790) were diluted 30 fold from a 25 mM stock in 100% DMSO, then each further diluted into running buffer containing 10 mM HEPES, 150 mM NaCl, 1% Triton X-100, pH 7.4. The compounds were run in a 3-fold dilution series over a GST-Pen2 or a free GST flow cell surface. The binding responses at equilibrium for each compound were fit to a 1:1 binding isotherm in order to estimate the binding affinities.
Chain of GST-Pen2 (Q9NZ42 whole entry): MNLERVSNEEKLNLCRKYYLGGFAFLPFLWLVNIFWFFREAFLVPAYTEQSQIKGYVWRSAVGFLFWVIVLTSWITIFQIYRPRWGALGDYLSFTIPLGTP

For assay [1], the system named is gamma-secretase. Nature of the assay: Sandwich ELISA of secreted Aβ from CHO-APPSwe cells. The assay is classed as cell-based, Chinese Hamster. The conditions noted are these: 18 h. As to the method:
For ELISA analysis, CHO-APPSwe cells were seeded at a density of 100K/well in 96-well plates and allowed to adhere overnight. Medium was removed and replaced with complete DMEM medium containing either vehicle alone (DMSO) or a dose-response of Compound 2 or GSI 1 (the gamma-secretase inhibitor designated Inhibitor 1 in Tian et al. (2002) J. Biol. Chem. 277:31499-31505). Cells were incubated with compounds for 18 h, medium collected, and levels of secreted Aβ determined as described below. Cytotoxicity was determined on each well to be less than 30% using an Alamar Blue assay (see US Published Application 2005/0070538).
Secreted Aβ38 peptide was quantified using an ultra-sensitive sandwich ELISA assay kit (Meso Scale Detection catalog #K111FSE-2) and the Meso Scale Sector Imager 6000 for detection, according to the manufacturer's recommended protocol. Captured Aβ was quantified by comparing ECL signals of the samples to a standard curve (included on each plate) using synthetic Aβ prepared in complete DMEM medium. Aβ standard peptides were purchased from Bachem and stored at 0.5 mg/ml in hexafluoroisopropanol (HFIP) at −20° C.
Secreted Aβ40, Aβ42, and total Aβ were measured using specific sandwich ELISAs. Aβ peptides were captured using either an Aβ40-selective monoclonal antibody (B113), an Aβ42-selective monoclonal antibody (A387), or a total Aβ (1-x) capture monoclonal antibody raised to the amino-terminal region (B436) (see PCT publication WO 04/018997).
Briefly, 96-well white ELISA plates were coated with the appropriate capture antibody, wells were blocked with 1% BSA/TBS, and then samples were assayed in complete medium at an appropriate dilution so that the relative luminescent units (RLUs) were in the linear range of the standard curve. Following sample incubation for all ELISAs, plates were washed and exposed to an alkaline phosphatase (AP) conjugated secondary antibody. For Aβ40 and Aβ42, B436-AP was used as the second antibody in the sandwich ELISA. For the total Aβ ELISA, 4G8-biotin (Signet) (a monoclonal antibody that recognizes the Aβ17-24) was used in combination with strepavidin-AP as the detection complex. Thus, for this experiment, total Aβ includes Aβ peptides from 1-x, where x>24. Bound AP-conjugates were detected with CSPD-Sapphire II Luminescence Substrate (Applied Biosystems) and plates were read using a standard 96-well luminometer.
Captured Aβ was quantified by comparing RLU values of the samples to a standard curve (included on each plate) using synthetic Aβ prepared in complete media. Aβ standard peptides were purchased from Bachem and stored at 0.5 mg/ml in hexafluoroisopropanol (HFIP) at −20° C.
Background: An ELISA detects its analyte on a solid surface through an enzyme-linked reagent.

In assay [2] the test system is gamma-secretase. Nature of the assay: Immunoprecipitation and immunoblot analysis of Aβ in CHO-APPSwe conditioned medium. The assay is classed as cell-based, Chinese Hamster. The conditions noted are these: 18 h, Compound 2 0.3-1000 nM, GSI 1 3-1000 nM. As for the experimental part:
For this analysis, CHO-APPSwe cells were treated with concentrations of Compound 2 ranging from 0.3 nM to 1000 nM, or with concentrations of a gamma-secretase inhibitor, GSI 1 (Tian et al. (2002) J. Biol. Chem. 277 (35), 31499-31505) ranging from 3 nM to 1000 nM, or with vehicle (0.12% DMSO), for 18 hours. The conditioned medium was collected and immunoprecipitated with the anti-Aβ1-12 antibody B436. Samples were denatured and electrophoresed on gels prepared according to Wiltfang et al. (1997) Electrophoresis 18:527-532, with the following improvements: the separating gel contained 12.5% instead of 15% acrylamide, the comb gel layer was omitted, and glycerol (25%) and DTT (100 mM) were substituted for sucrose and β-mercaptoethanol in the 2× sample buffer. Chemically synthesized Aβ1-37, Aβ1-38, Aβ1-40 and Aβ1-42 peptides (Bachem) were run as size standards. After electrophoresis, the peptides were transferred to nitrocellulose filters and immunoblotted with a biotinylated B436 antibody to detect the various Aβ alloforms.

For assay [3], the system named is gamma-secretase. The assay can be described thus: Mass spectrometry (SELDI) analysis of secreted Aβ from CHO-APPSwe cells. The conditions noted are these: 1 μM, 18 h. The assay is classed as cell-based, Chinese Hamster. As for the experimental part:
CHO-APPSwe cells were plated at 1 million cells per well in 6-well dishes and treated with complete DMEM medium containing either vehicle alone (DMSO), 1 μM Compound 2, or 1 μM GSI 1. Cells were incubated for 18 h, medium collected, and levels of secreted Aβ determined by mass spectrometry. Briefly, collected medium was immunoprecipitated overnight using antibody B436 coupled directly to Sepharose. Fifty ng of Aβ1-28 peptide was spiked into the medium as an internal standard. The Sepharose beads were then washed with TBS and bound Aβ was eluted with acetonitrile/0.1% trifluoroacetic acid. Eluate (3-6 μl) was spotted on NP20 chips (Ciphergen). Once the samples were dry, 20% CHCA matrix was spotted (1 μl) and allowed to dry. Chips were read on a SELDI Ciphergen mass spectrometer and Aβ peptides were identified by expected mass and comparison to standard purchased Aβ peptides (Bachem).

The test system of assay [4] is ε-cleavage of a gamma-secretase substrate, Notch. The assay can be described thus: Epsilon cleavage assay: Notch (NICD) in HEK293 cells overexpressing APP751 and NΔE/S2. The assay is classed as cell-based. The conditions noted are these: 18 h. As for the experimental part:
The effect of Compound 2 treatment on ε-cleavage of a gamma-secretase substrate, Notch, was assessed using an HEK293 clonal cell line overexpressing APP751 and the Notch construct NΔE/S2. The NΔE/S2 construct lacks most of the extracellular domain of Notch (Schroeter et al. (1998) Nature 393:382-386), and when cleaved by γ-secretase results in production of the Notch intracellular domain (NICD). The cells were plated in replicate 24-well dishes and treated in triplicate with 30 μM of Compound 2, 1 μM of the gamma secretase inhibitor N—[N-(3,5-Difluorophenacetyl-L-alanyl)]S-phenylglycine t-butyl ester (DAPT), or vehicle (0.12% DMSO), for 18 h. Following compound treatment, conditioned medium was collected and analyzed for levels of secreted Aβ40, which confirmed compound activity. Cell lysates were prepared and separated on a 4-20% Tris-glycine gel and probed with an anti-NICD antibody (Cell Signaling, #2421) specific for the cleaved NICD, or anti-GAPDH, which served as a loading control for each lane. NICD bands were then quantified by densitometry and an average of replicate values was compared to the vehicle controls.

The subject of assay [5] is γ-secretase-dependent cleavage of E-cadherin. The assay can be described thus: γ-secretase-dependent cleavage of E-cadherin in A431 cells, western blotting. The assay is classed as cell-based, Human. The note with it: overnight (16-18 h), then 6 h 1 μM staurosporine. As to the method: To measure γ-secretase-dependent cleavage of E-cadherin, an assay similar to that described by Marambaud et al. (2002) EMBO 21: 1948-1956 was developed. Human A431 cells which endogenously express detectable levels of E-cadherin and cleave full length E-cadherin upon treatment with staurosporine are treated overnight (16-18 h) with either test compound or control γ-secretase inhibitor (DAPT). Cleavage of E-cadherin is induced by a 6 h treatment with 1 μM staurosporine. Cell lysates are analyzed for levels of γ-CTF by western blotting and protein bands are quantified by densitometry.
Background: Immunoblotting shows a protein as a band on a membrane.

The test system of assay [6] is ε-cleavage of endogenous E-cadherin. The note with it: cited from earlier work.
The mark [7] stands for this setting: to a lesser extent than Aβ37 and Aβ38.

The structures appear in SMILES notation.

Broadly, the Kd is the concentration at which binding is half-saturated. With `COc1cc(C)c(Nc2nc(-c3ccc(-n4cnc(C)c4)c(F)c3)cs2)cc1C(C)C` [Compound 2], on GST-Pen2, the Kd is 6.5 µM. Further, in the assay with gamma-secretase [1] (ELISA), the “secreted Aβ40 level” value is recorded as “concentration dependent decrease” and the “secreted Aβ42 level” value is “concentration dependent decrease”. Further, the “total Aβ level” value in the assay on gamma-secretase [1] (ELISA, Aβ 1-x, x>24) is given as “did not significantly change”. For the same compound, in the assay with gamma-secretase [1] (ultra-sensitive sandwich ELISA), the “secreted Aβ38 level” value was “markedly increased”. Also, in the assay with gamma-secretase [2], the “level of Aβ1-37 in conditioned medium” value was “increase”, the “level of Aβ1-38 in conditioned medium” value was “increase” and the “level of Aβ1-40 in conditioned medium” value is listed as “lower”. Moreover, in the assay on gamma-secretase [3], the “Aβ37 compared to vehicle treated cells” value is “increased” and the “Aβ38 compared to vehicle treated cells” value is reported as “increased”. In the assay with gamma-secretase [3] (setting [7]), the “Aβ33 compared to vehicle treated cells” value is on record as “increased” and the “Aβ34 compared to vehicle treated cells” value is recorded as “increased”. In addition, the “inhibition of Notch processing” value in assay [4] (up to 30 μM) is on record as “no detectable inhibition”. The “inhibition of E-cadherin cleavage/processing (γ-CTF)” value in assay [5] is reported as “no detectable inhibition”.
For the compound `C[C@H](NC(=O)Cc1cc(F)cc(F)c1)C(=O)N[C@H]1N=C(c2ccccc2)c2ccccc2N(C)C1=O` [Compound E], in assay [6], the “effect on E-cadherin CTF1 or CTF3” value was “no effect” and the “formation of E-cadherin CTF2” value is “inhibit”.
Consider `C[C@H](NC(=O)Cc1cc(F)cc(F)c1)C(=O)N[C@H](C(=O)OC(C)(C)C)c1ccccc1` [DAPT, N—[N-(3,5-Difluorophenacetyl-L-alanyl)]S-phenylglycine t-butyl ester, reference compound], for which the “inhibition of NICD formation” value in assay [4] (1 μM) is on record as over 95%. Moreover, in assay [5], the “inhibition of E-cadherin cleavage/processing (γ-CTF)” value is reported as “completely inhibits”. Besides, in assay [6], the “effect on E-cadherin CTF1 or CTF3” value is “no effect” and the “formation of E-cadherin CTF2” value is “inhibit”.
In the case of `CC(C)C[C@H](NC(=O)[C@H](Cc1ccccc1)C[C@@H](O)[C@H](Cc1ccccc1)NC(=O)OC(C)(C)C)C(=O)N[C@@H](Cc1ccccc1)C(N)=O` [L-685,458], the Kd on GST-Pen2 is 1900 µM. Also, in assay [6], the “effect on E-cadherin CTF1 or CTF3” value is on record as “no effect” and the “formation of E-cadherin CTF2” value was “inhibit”.

These data come from patent publication US8871460B2, “Gamma-secretase modulatory compounds, methods for identifying same, and uses therefor” (Neurogenetic Pharmaceuticals, Inc., priority 2009, dated 2014).
